pIC50: −log10 of the molar value.
Molecular target: T1, PRMT3 (Homo sapiens, UniProt O60678)
T1 construct: GST-tagged PRMT3; made in house; host or cells: E. coli BL21(DE3) Gold
Test: PRMT3 Biochemical Assay (3H-SAM Flashplate, peptide substrate)
Details: 30 min preincubation, room temperature
Source text: S-adenosylmethionine (SAM), S-adenosylhomocysteine (SAH), bicine, Tween20, dimethylsulfoxide (DMSO), bovine skin gelatin (BSG), isopropyl-β-D-thiogalactopyranoside (IPTG), and Tris(2-carboxyethyl)phosphine hydrochloride solution (TCEP) were purchased from Sigma-Aldrich at the highest level of purity possible. ^3H-SAM was purchase from American Radiolabeled Chemicals with a specific activity of 80 Ci/mmol. 384-well streptavidin Flashplates were purchased from PerkinElmer.
Peptide containing the classic RMT substrate motif was synthesized with an N-terminal linker-affinity tag motif and a C-terminal amide cap by 21st Century Biochemicals. The peptide was purified by high-performance liquid chromatography (HPLC) to greater than 95% purity and confirmed by liquid chromatography mass spectrometry (LC-MS). The sequence was Biot-Ahx-[…]-amide (SEQ ID NO.:11).
Full-length human PRMT3 (NM_005788.3) isoform 1 transcript clone was amplified from an HEK 293 cDNA library and subcloned into pGEX-KG (GE Life Sciences). The resulting construct encodes an N-terminal GST tag and a thrombin cleavage sequence ([…] […] […] […]) (SEQ ID NO.: 12) fused directly to Cys 2 of PRMT3.
E. coli (BL21(DE3) Gold, Stratagene) made competent by the CaCl2 method were transformed with the PRMT3 construct and ampicillin selection. Protein over-expression was accomplished by growing the PRMT3 expressing E. coli clone and inducing expression with 0.3 mM IPTG at 16° C. The culture was grown for 12 hours, harvested by centrifugation, and stored at −80° C. for purification.
GST-tagged PRMT3 eluted with 25-400 mM phosphate in buffer C. Protein was concentrated and buffer was exchanged to 20 mM Tris, 150 mM NaCl, 5% glycerol, 5 mM β-mercaptoethanol, pH7.8 by ultrafiltration. The purity of recovered protein was 70%.
General Procedure for PRMT3 Enzyme Assays on Peptide Substrates.
The assays were all performed in a buffer consisting of 20 mM Bicine (pH=7.6), 1 mM TCEP, 0.005% BSG, and 0.002% Tween 20, prepared on the day of use. Compounds in 100% DMSO (1 ul) were spotted into a polypropylene 384-well V-bottom plates (Greiner) using a Platemate Plus outfitted with a 384-channel head (Thermo Scientific). DMSO (1 ul) was added to Columns 11, 12, 23, 24, rows A-H for the maximum signal control and 1 ul of SAH, a known product and inhibitor of PRMT3, was added to columns 11, 12, 23, 24, rows I-P for the minimum signal control. A cocktail (40 ul) containing the PRMT3 enzyme was added by Multidrop Combi (Thermo-Fisher). The compounds were allowed to incubate with PRMT3 for 30 min at room temperature, then a cocktail (10 ul) containing SAM and peptide was added to initiate the reaction (final volume=51 ul). The final concentrations of the components were as follows: PRMT3 was 0.5 nM, ^3H-SAM was 100 nM, non-radiolabeled SAM was 1.8 uM, peptide was 330 nM, SAH in the minimum signal control wells was 1 mM, and the DMSO concentration was 2%. The assays were stopped by the addition of potassium chloride (10 ul) to a final concentration of 100 mM. 50 ul of the reaction in the 384-well polypropylene plate was then transferred to a 384-well Flashplate and the biotinylated peptides were allowed to bind to the streptavidin surface for at least 1 hour before being washed once with 0.1% Tween20 in a Biotek ELx405 plate washer. The plates were then read in a PerkinElmer TopCount plate reader to measure the quantity of ^3H-labeled peptide bound to the Flashplate surface, measured as disintegrations per minute (dpm) or alternatively, referred to as counts per minute (cpm).
Where dpm=disintegrations per minute, cmpd=signal in assay well, and min and max are the respective minimum and maximum signal controls.
Where top and bottom are the normally allowed to float, but may be fixed at 100 or 0 respectively in a 3-parameter fit. The Hill Coefficient normally allowed to float but may also be fixed at 1 in a 3-parameter fit. […]

T1 sequence (O60678 with tags, fused parts or gaps): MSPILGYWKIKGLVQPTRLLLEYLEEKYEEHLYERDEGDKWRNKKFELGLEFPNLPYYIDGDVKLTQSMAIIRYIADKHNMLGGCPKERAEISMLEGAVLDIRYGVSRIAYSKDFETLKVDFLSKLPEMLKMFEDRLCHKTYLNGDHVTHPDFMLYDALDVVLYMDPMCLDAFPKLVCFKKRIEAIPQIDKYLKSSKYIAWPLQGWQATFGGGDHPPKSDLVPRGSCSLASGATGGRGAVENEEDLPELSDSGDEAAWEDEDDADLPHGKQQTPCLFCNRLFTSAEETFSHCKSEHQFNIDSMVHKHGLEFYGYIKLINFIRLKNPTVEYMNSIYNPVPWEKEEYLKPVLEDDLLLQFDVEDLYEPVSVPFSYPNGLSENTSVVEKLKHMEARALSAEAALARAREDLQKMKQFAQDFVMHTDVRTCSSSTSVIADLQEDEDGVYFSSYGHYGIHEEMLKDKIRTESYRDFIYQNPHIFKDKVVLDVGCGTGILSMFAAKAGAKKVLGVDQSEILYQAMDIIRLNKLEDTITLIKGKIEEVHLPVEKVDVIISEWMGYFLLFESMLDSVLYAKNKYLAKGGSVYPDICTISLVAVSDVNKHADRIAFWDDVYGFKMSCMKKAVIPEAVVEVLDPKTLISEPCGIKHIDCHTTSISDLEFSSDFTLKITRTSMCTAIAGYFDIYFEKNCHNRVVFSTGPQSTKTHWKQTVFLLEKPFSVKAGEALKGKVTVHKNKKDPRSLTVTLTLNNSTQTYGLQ

SMILES | pIC50
CN(CCN)Cc1c[nH]nc1-c1ccsc1 [Compound 3] | 5.00 to 5.52
CN(CCN)Cc1c[nH]nc1-c1cncnc1 [Compound 4] | ≤ 5.00
CN(CCN)Cc1c[nH]nc1-c1cccs1 [Compound 5] | ≤ 5.00
CN(CCN)Cc1c[nH]nc1-c1ccco1 [Compound 6] | 5.00 to 5.52
CN(CCN)Cc1c[nH]nc1-c1ccoc1 [Compound 7] | ≤ 5.00
CN(CCN)Cc1c[nH]nc1-c1cnn(C)c1 [Compound 8] | ≤ 5.00
CN(CCN)Cc1c[nH]nc1-c1ccc2scnc2c1 [Compound 9] | 5.00 to 5.52
Cc1noc(C)c1-c1n[nH]cc1CN(C)CCN [Compound 10] | ≤ 5.00
COc1ncc(-c2n[nH]cc2CN(C)CCN)cn1 [Compound 11] | ≤ 5.00
CN(CCN)Cc1c[nH]nc1-c1cn[nH]c1 [Compound 12] | ≤ 5.00
CN(CCN)Cc1c[nH]nc1-c1cnc2[nH]ccc2c1 [Compound 13] | 5.52 to 6.00
CN(CCN)Cc1c[nH]nc1-c1cc[nH]n1 [Compound 14] | ≤ 5.00
CN(CCN)Cc1c[nH]nc1-c1ccnn1C [Compound 15] | ≤ 5.00
CCn1cc(-c2n[nH]cc2CN(C)CCN)cn1 [Compound 16] | 5.00 to 5.52
CN(CCN)Cc1c[nH]nc1-c1cnn(-c2ccccc2)c1 [Compound 17] | 5.00 to 5.52
CN(CCN)Cc1c[nH]nc1-c1cnn(CCO)c1 [Compound 18] | ≤ 5.00
CN(CCN)Cc1c[nH]nc1-c1ccc2cnn(C)c2c1 [Compound 19, N^1-methyl-N^1-((3-(1-methyl-1H-indazol-6-yl)-1H-pyrazol-4-yl)methyl)ethane-1,2-diamine] | 5.00 to 5.52
CN(CCN)Cc1c[nH]nc1-c1ccc2ncnn2c1 [Compound 20] | 5.00 to 5.52
CN(CCN)Cc1c[nH]nc1-c1ccc2nccn2c1 [Compound 21, N^1-((3-(imidazo[1,2-a]pyridin-6-yl)-1H-pyrazol-4-yl)methyl)-N^1-methylethane-1,2-diamine] | 5.00 to 5.52
CC(C)n1cc(-c2n[nH]cc2CN(C)CCN)cn1 [Compound 22] | 5.00 to 5.52
CC(C)Cn1cc(-c2n[nH]cc2CN(C)CCN)cn1 [Compound 23, N^1-((2′-isobutyl-3,4′-bi(1H-pyrazol)-4-yl)methyl)-N^1-methylethane-1,2-diamine] | 5.00 to 5.52
CN(CCN)Cc1c[nH]nc1-c1cnn(Cc2ccccc2)c1 [Compound 24, N^1-((1′-benzyl-3,4′-bi(1H-pyrazol)-4-yl)methyl)-N^1-methylethane-1,2-diamine] | 5.00 to 5.52

Source: patent US9630961B2, “Arginine methyltransferase inhibitors and uses thereof” (Epizyme, Inc., priority 2013, dated 2017)
